In data set [1] the target is T1, Protein deacetylase HDAC6 (Mus musculus) (UniProt Q9Z2V5).
T1 sequence (whole entry): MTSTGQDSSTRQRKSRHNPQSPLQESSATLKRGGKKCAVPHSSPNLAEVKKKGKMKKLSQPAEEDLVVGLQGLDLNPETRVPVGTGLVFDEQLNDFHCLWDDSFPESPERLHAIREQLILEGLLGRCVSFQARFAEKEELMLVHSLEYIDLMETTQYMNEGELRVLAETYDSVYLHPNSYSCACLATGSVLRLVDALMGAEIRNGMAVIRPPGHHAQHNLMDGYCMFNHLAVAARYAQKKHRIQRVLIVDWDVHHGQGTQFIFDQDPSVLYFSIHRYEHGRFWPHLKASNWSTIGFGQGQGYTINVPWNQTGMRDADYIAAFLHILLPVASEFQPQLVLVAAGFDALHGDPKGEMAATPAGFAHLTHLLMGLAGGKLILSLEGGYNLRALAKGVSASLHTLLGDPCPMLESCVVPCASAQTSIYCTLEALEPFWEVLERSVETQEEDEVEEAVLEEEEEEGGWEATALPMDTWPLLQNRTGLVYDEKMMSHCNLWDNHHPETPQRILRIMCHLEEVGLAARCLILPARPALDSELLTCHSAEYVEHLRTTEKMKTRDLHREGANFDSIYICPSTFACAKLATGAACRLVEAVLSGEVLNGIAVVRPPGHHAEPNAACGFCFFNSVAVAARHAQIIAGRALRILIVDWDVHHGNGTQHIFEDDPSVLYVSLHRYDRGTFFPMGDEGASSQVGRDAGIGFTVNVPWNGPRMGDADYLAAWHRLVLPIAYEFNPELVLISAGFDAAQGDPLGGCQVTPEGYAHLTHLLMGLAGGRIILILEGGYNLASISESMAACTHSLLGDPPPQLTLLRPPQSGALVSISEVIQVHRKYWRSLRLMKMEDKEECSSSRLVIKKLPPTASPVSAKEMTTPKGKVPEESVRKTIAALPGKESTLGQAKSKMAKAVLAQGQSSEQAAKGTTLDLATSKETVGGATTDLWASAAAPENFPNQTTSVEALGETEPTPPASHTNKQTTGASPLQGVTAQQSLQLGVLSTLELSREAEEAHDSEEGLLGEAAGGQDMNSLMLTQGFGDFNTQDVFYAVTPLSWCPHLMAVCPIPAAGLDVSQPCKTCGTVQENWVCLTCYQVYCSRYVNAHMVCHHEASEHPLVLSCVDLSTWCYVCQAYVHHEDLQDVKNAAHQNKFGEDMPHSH
Kind of data set: Inhibition of HDAC6 in mouse B16 cells assessed as accumulation of acetylated alpha-tubulin level after 24 hrs by Western blotting analysis. The format is cell-based.

The nature of data set [2]: Stability in human liver microsomes assessed as clearance and measured by LC-MS/MS analysis. It is filed as ADME, Microsome. The note with it: read-out: CLH. Background: Microsomes from liver hold many membrane-bound enzymes, among them those of drug oxidation.
Data set [3] can be described thus: Stability in human liver microsomes assessed as half-life and measured by LC-MS/MS analysis. The format is ADME, Microsome.
Data set [4] addresses Histone deacetylase 3 (Homo sapiens, UniProt O15379). Put plainly: Inhibition of HDAC3 (unknown origin).
Data set [5] concerns the target T1, Protein deacetylase HDAC6 (Mus musculus). Put plainly: Inhibition of HDAC6 in mouse CT26 cells assessed as accumulation of acetylated alpha-tubulin level at 6 uM after 2 to 24 hrs by Western blotting analysis. The following applies: time 2-24 hrs, TDE = time-dependent effect. The format is cell-based. For orientation: In western blotting, separated proteins are transferred to a membrane and probed.

For data set [6] the target is unchanged. Kind of data set: Inhibition of HDAC6 in mouse B16 cells assessed as accumulation of acetylated alpha-tubulin level at 6 uM after 2 to 12 hrs by Western blotting analysis. The following applies: time 2-12 hrs, TDE = time-dependent effect. It is filed as cell-based.
Data set [7] in a line: Stability in mouse plasma incubated for 6 hrs in presence of NADPH and measured by LC-MS/MS analysis. It is filed as ADME, cell-free. The following applies: read-out: Stability.
Data set [8] has as its target T2, Histone deacetylase 8 (Homo sapiens, UniProt Q9BY41).
T2 sequence (Q9BY41 whole entry): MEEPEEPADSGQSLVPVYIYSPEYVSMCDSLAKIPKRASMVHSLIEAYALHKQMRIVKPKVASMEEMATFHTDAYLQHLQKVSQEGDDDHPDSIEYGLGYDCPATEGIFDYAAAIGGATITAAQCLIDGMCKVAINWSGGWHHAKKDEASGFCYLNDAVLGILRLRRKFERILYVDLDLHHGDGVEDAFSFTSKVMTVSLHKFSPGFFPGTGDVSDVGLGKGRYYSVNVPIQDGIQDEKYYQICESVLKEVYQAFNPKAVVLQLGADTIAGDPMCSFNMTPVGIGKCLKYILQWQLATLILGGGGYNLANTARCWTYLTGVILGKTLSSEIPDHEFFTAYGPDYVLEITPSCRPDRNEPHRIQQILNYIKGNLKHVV
Put plainly: Inhibition of HDAC8 (unknown origin) using Boc-Lys-(triflouroacetyl)-AMC as substrate incubated for 0.5 hr and measured after 20 mins by fluorescence assay.

Data set [9] has as its target T1, Protein deacetylase HDAC6 (Mus musculus). Put plainly: Inhibition of HDAC6 in mouse CT26 cells assessed as accumulation of acetylated alpha-tubulin level at 2 to 6 uM after 24 hrs by Western blotting analysis. The format is cell-based. The note with it: dose 2-6 µM, DDE = dose-dependent effect.
For data set [10], the target named is Histone deacetylase 2 (Homo sapiens, UniProt Q92769).
Chain of Histone deacetylase 2 (Q92769 whole entry): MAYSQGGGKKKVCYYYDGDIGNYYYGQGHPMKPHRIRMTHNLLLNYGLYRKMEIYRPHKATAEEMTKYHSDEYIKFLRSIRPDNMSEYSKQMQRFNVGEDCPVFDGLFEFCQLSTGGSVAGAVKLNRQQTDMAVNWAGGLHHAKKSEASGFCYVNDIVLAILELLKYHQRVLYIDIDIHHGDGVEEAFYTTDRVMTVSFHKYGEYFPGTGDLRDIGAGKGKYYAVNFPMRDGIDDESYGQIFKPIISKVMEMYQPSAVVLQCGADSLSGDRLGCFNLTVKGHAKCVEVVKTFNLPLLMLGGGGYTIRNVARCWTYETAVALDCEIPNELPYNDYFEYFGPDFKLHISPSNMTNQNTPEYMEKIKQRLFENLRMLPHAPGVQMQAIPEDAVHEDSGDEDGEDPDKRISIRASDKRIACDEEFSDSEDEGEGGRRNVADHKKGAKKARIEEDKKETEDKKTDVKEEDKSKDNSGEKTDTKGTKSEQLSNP
Description: Inhibition of HDAC2 (unknown origin) using Boc-Lys-(acetyl)-AMC as substrate incubated for 0.5 hr and measured after 20 mins by fluorescence assay
The nature of data set [11]: Stability in mouse liver microsomes assessed as half-life and measured by LC-MS/MS analysis. The format is ADME, Microsome.
Data set [12] can be described thus: Stability in mouse liver microsomes assessed as clearance and measured by LC-MS/MS analysis. It is filed as ADME, Microsome. The following applies: read-out: CLH.
Data set [13] in a line: Stability in human plasma incubated for 6 hrs in presence of NADPH and measured by LC-MS/MS analysis. The following applies: read-out: Stability. It is filed as ADME, cell-free.
Data set [14] deals with T1, Protein deacetylase HDAC6 (Mus musculus). Kind of data set: Inhibition of HDAC6 in mouse B16 cells assessed as accumulation of acetylated alpha-tubulin level at 2 to 6 uM after 24 hrs by Western blotting analysis. The format is cell-based. The note with it: dose 2-6 µM, DDE = dose-dependent effect.
Data set [15] deals with CT26. Put plainly: Antitumor immunity in C57BL/6 mouse xenografted with mouse CT26 cells assessed as increase in CD3+ cytotoxic T cells at 50 mg/kg, po administered once daily for 21 days measured by flow cytometry analysis. The format is functional. The following applies: time 21 day. A general note: Flow cytometry measures light scatter and fluorescence of single cells or particles in a stream.

In data set [16] the test system is CT26. Put plainly: Antitumor immunity in C57BL/6 mouse xenografted with mouse CT26 cells assessed as increase in CD3+ CD8+ cytotoxic T cells at 100 mg/kg, po administered once daily for 21 days measured by flow cytometry analysis. The note with it: time 21 day. It is filed as functional.
Data set [17] deals with B16. Kind of data set: Antiproliferative activity against mouse B16 cells after 72 hrs by MTT assay. It is filed as functional, cell-based. The following applies: B16, 72 h.
Data set [18] has as its system CT26. Put plainly: Antitumor immunity in C57BL/6 mouse xenografted with mouse CT26 cells assessed as decrease in number of CD4+CD25+ CD127- T regulatory cells at 100 mg/kg, po administered once daily for 21 days measured by flow cytometry analysis. The format is functional. The arrangement: scale not given: the % may be the effect or the level left. The following applies: time 21 day.

Data set [19] deals with CT26. Kind of data set: Antitumor immunity in C57BL/6 mouse xenografted with mouse CT26 cells assessed as decrease in number of CD8+IFNgamma+ T cells at 100 mg/kg, po administered once daily for 21 days measured by flow cytometry analysis. It is filed as functional. The arrangement: scale not given: the % may be the effect or the level left. The note with it: time 21 day.

Data set [20] concerns CT26. Put plainly: Induction of apoptosis in mouse CT26 cells assessed as apoptotic cells at 6 uM measured by Annexin V-FITC/PI staining based flow cytometry method. The format is functional.

Broadly, the half-life is how long it takes for the measured level to halve. In general, IC50 refers to the concentration at which inhibition is half-maximal.

Each structure is given as a SMILES string. Activity calls are given as the source filed them. The calls are words filed in the database; no cut-off is given here.

Chain of Histone deacetylase 3 (O15379 whole entry): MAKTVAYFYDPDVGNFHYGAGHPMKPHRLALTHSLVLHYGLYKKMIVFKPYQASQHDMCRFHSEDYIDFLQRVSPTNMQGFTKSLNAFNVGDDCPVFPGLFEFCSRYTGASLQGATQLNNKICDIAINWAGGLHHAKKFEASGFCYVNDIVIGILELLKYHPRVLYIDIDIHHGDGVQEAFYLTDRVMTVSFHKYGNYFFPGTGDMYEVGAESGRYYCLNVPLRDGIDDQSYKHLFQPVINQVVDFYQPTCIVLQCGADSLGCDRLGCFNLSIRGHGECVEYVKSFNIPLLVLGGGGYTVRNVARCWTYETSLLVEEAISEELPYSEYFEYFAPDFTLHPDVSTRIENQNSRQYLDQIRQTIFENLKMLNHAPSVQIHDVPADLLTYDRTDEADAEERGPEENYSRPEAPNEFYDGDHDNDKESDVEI

In the case of `COc1cc(OCc2cccc(-c3ccccc3)c2C)cc(OC)c1CNCCCCCC(=O)NO`, the acetylated alpha-tubulin accumulation entry in [1] was “Active”.

`COc1cc(OCc2cccc(-c3ccc4c(c3)OCCO4)c2C)cc(OC)c1CNCCCCCC(=O)NO`: in [1], the acetylated alpha-tubulin accumulation entry is “Active”.

As for `COc1cc(OCc2cccc(-c3ccccc3)c2C)cc(OC)c1CNCCCCCCC(=O)NO`, the microsomal CLint came to 34.1 µL/min/mg in data set [2] and 20.4 µL/min/mg in data set [12]. Also, the half-life in data set [3] was 1.7 h; in data set [11] (liver microsomes), 1.13 h. The IC50 in data set [4] is 46 nM; in data set [8], 2180 nM; in data set [10] it was 172 nM. Also, the acetylated alpha-tubulin accumulation entry in data set [1] is “Active”. Also, the inhibition entry is “Tde” in data set [5], “Tde” in data set [6], “Dde” in data set [9] and “Dde” in [14]. The results for the remaining at 6 h in data set [7] and in data set [13] were 23% and 97%, respectively.

On to `O=C(CCCCCCC(=O)Nc1ccccc1)NO` [VORINOSTAT], for which the microsomal CLint in [2] came to 4.02 µL/min/mg; in [12] it was 2.04 µL/min/mg. The half-life in data set [3] amounted to 4.32 h. For the same compound, the results for the remaining at 6 h in data set [7] and in data set [13] were 20% and 77%, respectively. The Activity in data set [15] is on record as 57.83%; in data set [16], 32.56%; in data set [18] it was 27.99%; in [19] it was 21.12%; in data set [20], 26%. Besides, in [11] (microsomes), the t1/2 stood at 11.6 h. In data set [17], this compound showed an IC50 of 2260 nM.

`Cc1c(COc2ccc(CNCCCCCCC(=O)NO)c(OCc3cccc(C#N)c3)c2)cccc1-c1ccccc1`: in data set [1], the acetylated alpha-tubulin accumulation entry was “Active”.

(Values after ChEMBL document CHEMBL5143616, “Novel biphenyl-based scaffold as potent and selective histone deacetylase 6 (HDAC6) inhibitors: Identification, development and pharmacological evaluation” (Eur J Med Chem, 2022).)
